From ChEMBL document CHEMBL4387753 (Bioorg Med Chem, 2019)
Converted amounts (≈) assume the structure as drawn.

Experiments:
Assay type in all cases: functional
Staphylococcus aureus [1] = test: Antibacterial activity against Staphylococcus aureus ATCC 25923 incubated for 24 hrs by CLSI protocol based broth microdilution method; conditions: ATCC 25923, 24 h
Staphylococcus aureus [2] = test: Antibacterial activity against methicillin-resistant Staphylococcus aureus ATCC 43300 incubated for 24 hrs by CLSI protocol based broth microdilution method; conditions: ATCC 43300, 24 h
Pseudomonas aeruginosa = test: Antibacterial activity against Pseudomonas aeruginosa ATCC 27853 incubated for 24 hrs by CLSI protocol based broth microdilution method; conditions: ATCC 27853, 24 h
Bacillus pumilus = test: Antibacterial activity against Bacillus pumilus CMCC63202 incubated for 24 hrs by CLSI protocol based broth microdilution method; conditions: CMCC63202, 24 h
Staphylococcus aureus [3] = test: Antibacterial activity against penicillin-resistant Staphylococcus aureus clinical isolate incubated for 24 hrs by CLSI protocol based broth microdilution method
Bacillus subtilis = test: Antibacterial activity against Bacillus subtilis ATCC 9372 incubated for 24 hrs by CLSI protocol based broth microdilution method; conditions: ATCC 9372, 24 h
Escherichia coli = test: Antibacterial activity against Escherichia coli ATCC 25922 incubated for 24 hrs by CLSI protocol based broth microdilution method; conditions: ATCC 25922, 24 h
Staphylococcus aureus [4] = test: Antibacterial activity against Staphylococcus aureus clinical isolate incubated for 24 hrs by CLSI protocol based broth microdilution method

| SMILES | MIC (Staphylococcus aureus [1]) [µg/mL] | MIC (Staphylococcus aureus [2]) [µg/mL] | MIC (Pseudomonas aeruginosa) [µg/mL] | MIC (Bacillus pumilus) [µg/mL] | MIC (Staphylococcus aureus [3]) [µg/mL] | MIC (Bacillus subtilis) [µg/mL] | MIC (Escherichia coli) [µg/mL] | MIC (Staphylococcus aureus [4]) [µg/mL] |
| --- | --- | --- | --- | --- | --- | --- | --- | --- |
| NC(=O)c1c(F)ccc(OCC2=NN(c3ccc(Cl)cc3)C(=O)C2)c1F | > 64 | > 64 | > 64 | > 64 | > 64 | > 64 | > 64 | – |
| NC(=O)c1c(F)ccc(OCc2nn(Cc3ccc(Cl)cc3)c(=O)o2)c1F | > 64 | 64 (≈ 162 µM) | > 64 | 32 (≈ 80.9 µM) | > 64 | 8 (≈ 20.2 µM) | > 64 | > 64 |
| CC[C@H]1OC(=O)[C@H](C)[C@@H](O[C@H]2C[C@@](C)(OC)[C@@H](O)[C@H](C)O2)[C@H](C)[C@@H](O[C@@H]2O[C@H](C)C[C@H](N(C)C)[C@H]2O)[C@](C)(O)C[C@@H](C)C(=O)[C@H](C)[C@@H](O)[C@]1(C)O [ERYTHROMYCIN] | ≤ 0.125 | > 64 | 32 (≈ 43.6 µM) | ≤ 0.125 | – | ≤ 0.125 | 16 (≈ 21.8 µM) | > 64 |
| Cc1ccc(-n2nc(COc3ccc(F)c(C(N)=O)c3F)oc2=O)cc1 | 4 (≈ 11.1 µM) | 4 (≈ 11.1 µM) | > 64 | 8 (≈ 22.1 µM) | 4 (≈ 11.1 µM) | 0.5 (≈ 1.38 µM) | > 64 | 4 (≈ 11.1 µM) |
| CCCn1c(COc2ccc(F)c(C(N)=O)c2F)nn(-c2ccc(Br)cc2)c1=O | > 64 | 32 (≈ 68.5 µM) | > 64 | > 64 | > 64 | 32 (≈ 68.5 µM) | > 64 | – |
| NC(=O)c1c(F)ccc(OCc2nn(-c3cccc(Cl)c3)c(=O)o2)c1F | > 64 | > 64 | > 64 | > 64 | > 64 | 8 (≈ 21 µM) | > 64 | > 64 |
| Cc1ccc(-c2nn(COc3ccc(F)c(C(N)=O)c3F)c(=O)o2)cc1 | > 64 | > 64 | > 64 | > 64 | > 64 | > 64 | > 64 | > 64 |
| CCCCc1ccc(-n2nc(COc3ccc(F)c(C(N)=O)c3F)oc2=O)cc1 | > 64 | 64 (≈ 159 µM) | > 64 | 0.5 (≈ 1.24 µM) | > 64 | 0.015 (≈ 0.0372 µM) | > 64 | 2 (≈ 4.96 µM) |
| CC(C)c1ccc(-n2nc(COc3ccc(F)c(C(N)=O)c3F)oc2=O)cc1 | 16 (≈ 41.1 µM) | 16 (≈ 41.1 µM) | > 64 | 2 (≈ 5.14 µM) | 32 (≈ 82.2 µM) | 1 (≈ 2.57 µM) | > 64 | 16 (≈ 41.1 µM) |
| CC(C)Cn1c(COc2ccc(F)c(C(N)=O)c2F)nn(-c2ccc(Br)cc2)c1=O | > 64 | > 64 | > 64 | > 64 | > 64 | > 64 | > 64 | – |
| NC(=O)c1c(F)ccc(OCc2nn(-c3ccc(Cl)cc3Cl)c(=O)o2)c1F | 4 (≈ 9.61 µM) | 2 (≈ 4.81 µM) | > 64 | 0.5 (≈ 1.2 µM) | 4 (≈ 9.61 µM) | 1 (≈ 2.4 µM) | > 64 | 4 (≈ 9.61 µM) |
| Cc1ccccc1-n1nc(COc2ccc(F)c(C(N)=O)c2F)oc1=O | > 64 | 64 (≈ 177 µM) | > 64 | 16 (≈ 44.3 µM) | > 64 | 16 (≈ 44.3 µM) | > 64 | > 64 |
| NC(=O)c1c(F)ccc(OCc2nn(-c3ccccc3)c(=O)o2)c1F | 16 (≈ 46.1 µM) | 16 (≈ 46.1 µM) | > 64 | 64 (≈ 184 µM) | 32 (≈ 92.1 µM) | 4 (≈ 11.5 µM) | > 64 | 16 (≈ 46.1 µM) |
| NC(=O)c1c(F)ccc(OCc2nn(-c3ccc(Cl)cc3)c(=O)o2)c1F | 1 (≈ 2.62 µM) | 2 (≈ 5.24 µM) | > 64 | 2 (≈ 5.24 µM) | 2 (≈ 5.24 µM) | 0.25 (≈ 0.655 µM) | > 64 | 2 (≈ 5.24 µM) |
| NC(=O)c1c(F)ccc(OCc2nn(-c3ccc(Br)cc3)c(=O)n2Cc2ccccc2)c1F | > 64 | > 64 | > 64 | > 64 | > 64 | > 64 | > 64 | – |
| COc1cccc(-n2nc(COc3ccc(F)c(C(N)=O)c3F)oc2=O)c1 | 64 (≈ 170 µM) | > 64 | > 64 | > 64 | > 64 | 16 (≈ 42.4 µM) | > 64 | 64 (≈ 170 µM) |
| Cc1ccc(-n2nc(COc3ccc(F)c(C(N)=O)c3F)oc2=O)c(C)c1 | 32 (≈ 85.3 µM) | 16 (≈ 42.6 µM) | > 64 | 2 (≈ 5.33 µM) | 64 (≈ 171 µM) | 2 (≈ 5.33 µM) | > 64 | 32 (≈ 85.3 µM) |
| NC(=O)c1c(F)ccc(OCc2nn(-c3ccc(F)cc3)c(=O)o2)c1F | 16 (≈ 43.8 µM) | 8 (≈ 21.9 µM) | > 64 | 8 (≈ 21.9 µM) | 16 (≈ 43.8 µM) | 2 (≈ 5.48 µM) | > 64 | 2 (≈ 5.48 µM) |

| SMILES | MIC (Staphylococcus aureus [1]) [µg/mL] | MIC (Staphylococcus aureus [2]) [µg/mL] | MIC (Pseudomonas aeruginosa) [µg/mL] | MIC (Bacillus pumilus) [µg/mL] | MIC (Staphylococcus aureus [3]) [µg/mL] | MIC (Bacillus subtilis) [µg/mL] | MIC (Escherichia coli) [µg/mL] | MIC (Staphylococcus aureus [4]) [µg/mL] |
| --- | --- | --- | --- | --- | --- | --- | --- | --- |
| Cc1cc(Cl)ccc1-n1nc(COc2ccc(F)c(C(N)=O)c2F)oc1=O | 4 (≈ 10.1 µM) | 2 (≈ 5.05 µM) | > 64 | 0.5 (≈ 1.26 µM) | 4 (≈ 10.1 µM) | 0.5 (≈ 1.26 µM) | > 64 | 4 (≈ 10.1 µM) |
| CC(C)(C)c1ccc(N2N=C(COc3ccc(F)c(C(N)=O)c3F)CC2=O)cc1 | > 64 | > 64 | > 64 | > 64 | 64 (≈ 159 µM) | > 64 | > 64 | – |
| NC(=O)c1c(F)ccc(OCc2nn(-c3ccc(Cl)c(Cl)c3)c(=O)o2)c1F | > 64 | 64 (≈ 154 µM) | > 64 | 4 (≈ 9.61 µM) | > 64 | 4 (≈ 9.61 µM) | > 64 | 64 (≈ 154 µM) |
| CCCCCCCCn1c(COc2ccc(F)c(C(N)=O)c2F)nn(-c2ccc(Br)cc2)c1=O | > 64 | > 64 | > 64 | > 64 | > 64 | > 64 | > 64 | – |
| CC(C)(C)n1nc(COc2ccc(F)c(C(N)=O)c2F)oc1=O | > 64 | > 64 | > 64 | > 64 | > 64 | 32 (≈ 97.8 µM) | > 64 | 16 (≈ 48.9 µM) |
| NC(=O)c1c(F)ccc(OCc2nn(-c3ccc(C(F)(F)F)cc3)c(=O)o2)c1F | 4 (≈ 9.63 µM) | 2 (≈ 4.82 µM) | > 64 | 2 (≈ 4.82 µM) | 4 (≈ 9.63 µM) | 0.125 (≈ 0.301 µM) | > 64 | 4 (≈ 9.63 µM) |
| CCCCn1c(COc2ccc(F)c(C(N)=O)c2F)nn(-c2ccc(Br)cc2)c1=O | > 64 | > 64 | > 64 | > 64 | > 64 | > 64 | > 64 | – |
| CC(C)(C)c1ccc(-c2nn(COc3ccc(F)c(C(N)=O)c3F)c(=O)o2)cc1 | > 64 | > 64 | > 64 | 32 (≈ 79.3 µM) | > 64 | 8 (≈ 19.8 µM) | > 64 | > 64 |
| CN(C)n1c(COc2ccc(F)c(C(N)=O)c2F)nn(-c2ccc(Br)cc2)c1=O | 32 (≈ 68.3 µM) | 16 (≈ 34.2 µM) | > 64 | 32 (≈ 68.3 µM) | 32 (≈ 68.3 µM) | 32 (≈ 68.3 µM) | > 64 | – |
| Cn1c(COc2ccc(F)c(C(N)=O)c2F)nn(-c2ccc(Br)cc2)c1=O | > 64 | > 64 | > 64 | 1 (≈ 2.28 µM) | > 64 | 64 (≈ 146 µM) | > 64 | – |
| CC(C)(C)c1ccc(Cn2nc(COc3ccc(F)c(C(N)=O)c3F)oc2=O)cc1 | > 64 | > 64 | > 64 | 32 (≈ 76.7 µM) | > 64 | 32 (≈ 76.7 µM) | > 64 | > 64 |
| NC(=O)c1c(F)ccc(OCc2nn(-c3ccc(Br)cc3)c(=O)n2N)c1F | > 64 | > 64 | > 64 | 64 (≈ 145 µM) | > 64 | 16 (≈ 36.3 µM) | > 64 | – |
| Cc1cccc(-n2nc(COc3ccc(F)c(C(N)=O)c3F)oc2=O)c1 | 64 (≈ 177 µM) | 64 (≈ 177 µM) | > 64 | 64 (≈ 177 µM) | > 64 | 16 (≈ 44.3 µM) | > 64 | 64 (≈ 177 µM) |
| CC(C)(C)c1ccc(-n2nc(CCOc3ccc(F)c(C(N)=O)c3F)oc2=O)cc1 | 4 (≈ 9.58 µM) | 1 (≈ 2.4 µM) | > 64 | ≤ 0.125 | 4 (≈ 9.58 µM) | 0.25 (≈ 0.599 µM) | > 64 | 2 (≈ 4.79 µM) |
| CC(C)(C)c1ccc(-n2nc(COc3ccc(F)c(C(N)=O)c3F)oc2=O)cc1 | 8 (≈ 19.8 µM) | 8 (≈ 19.8 µM) | > 64 | 2 (≈ 4.96 µM) | 16 (≈ 39.7 µM) | 1 (≈ 2.48 µM) | > 64 | 16 (≈ 39.7 µM) |
| NC(=O)c1c(F)ccc(OCCc2nn(-c3ccc(Br)cc3)c(=O)o2)c1F | 4 (≈ 9.09 µM) | 2 (≈ 4.54 µM) | > 64 | ≤ 0.125 | 4 (≈ 9.09 µM) | 1 (≈ 2.27 µM) | > 64 | 4 (≈ 9.09 µM) |
| CCCCc1ccc(N2N=C(COc3ccc(F)c(C(N)=O)c3F)CC2=O)cc1 | > 64 | > 64 | > 64 | > 64 | 64 (≈ 159 µM) | > 64 | > 64 | – |
| CC(C)CCn1c(COc2ccc(F)c(C(N)=O)c2F)nn(-c2ccc(Br)cc2)c1=O | > 64 | > 64 | > 64 | > 64 | > 64 | > 64 | > 64 | – |
